In the NIST ThermoML archive (doi:10.1021/je060271a):
Numbers after ± are expanded uncertainties.

Conditions: 283.15 K, Liquid, Vibrating tube method

A mass density (20425 kPa) of 1015.6 ± 1.2 kg/m3, a mass density (20443 kPa) of 1015.7 ± 1.2 kg/m3 and a mass density (20458 kPa) of 1015.7 ± 1.2 kg/m3 were found for `CCCCCC(=O)OCC(COC(=O)CCCCC)(COC(=O)CCCCC)COC(=O)CCCCC` [pentaerythritol tetrahexanoate] in this work. The mass density (20473 kPa) was 1015.7 ± 1.2 kg/m3, the mass density (20491 kPa) was 1015.7 ± 1.2 kg/m3 and the mass density (20506 kPa) was 1015.6 ± 1.2 kg/m3. It also gave a mass density (20522 kPa) of 1015.6 ± 1.2 kg/m3, a mass density (20537 kPa) of 1015.7 ± 1.2 kg/m3 and a mass density (20555 kPa) of 1015.7 ± 1.2 kg/m3. It also gave a mass density (20571 kPa) of 1015.7 ± 1.2 kg/m3, a mass density (20586 kPa) of 1015.8 ± 1.2 kg/m3 and a mass density (20606 kPa) of 1015.7 ± 1.2 kg/m3. The mass density (20621 kPa) was 1015.7 ± 1.2 kg/m3, the mass density (20637 kPa) was 1015.9 ± 1.2 kg/m3 and the mass density (20652 kPa) was 1015.7 ± 1.2 kg/m3. The mass density (20670 kPa) was 1015.8 ± 1.2 kg/m3, the mass density (20686 kPa) was 1015.8 ± 1.2 kg/m3 and the mass density (20701 kPa) was 1015.7 ± 1.2 kg/m3. For the same compound, the mass density (20719 kPa) was 1015.8 ± 1.2 kg/m3, the mass density (20735 kPa) was 1015.7 ± 1.2 kg/m3 and the mass density (20750 kPa) was 1015.8 ± 1.2 kg/m3. It also gave a mass density (20769 kPa) of 1016 ± 1.2 kg/m3, a mass density (20785 kPa) of 1015.8 ± 1.2 kg/m3 and a mass density (20801 kPa) of 1016 ± 1.2 kg/m3. It also gave a mass density (20817 kPa) of 1015.9 ± 1.2 kg/m3, a mass density (20836 kPa) of 1015.8 ± 1.2 kg/m3 and a mass density (20851 kPa) of 1015.8 ± 1.2 kg/m3. For the same compound, the mass density (20867 kPa) was 1015.8 ± 1.2 kg/m3, the mass density (20886 kPa) was 1015.9 ± 1.2 kg/m3 and the mass density (20902 kPa) was 1015.9 ± 1.2 kg/m3. It also gave a mass density (20918 kPa) of 1015.9 ± 1.2 kg/m3, a mass density (20937 kPa) of 1015.9 ± 1.2 kg/m3 and a mass density (20953 kPa) of 1015.9 ± 1.2 kg/m3. It also gave a mass density (20968 kPa) of 1015.9 ± 1.2 kg/m3, a mass density (20988 kPa) of 1015.9 ± 1.2 kg/m3 and a mass density (21004 kPa) of 1016 ± 1.2 kg/m3. It also gave a mass density (21021 kPa) of 1016 ± 1.2 kg/m3, a mass density (21040 kPa) of 1016 ± 1.2 kg/m3 and a mass density (21057 kPa) of 1016 ± 1.2 kg/m3. For the same compound, the mass density (21073 kPa) was 1016 ± 1.2 kg/m3, the mass density (21092 kPa) was 1016 ± 1.2 kg/m3 and the mass density (21106 kPa) was 1016 ± 1.2 kg/m3. The mass density (21122 kPa) was 1016 ± 1.2 kg/m3, the mass density (21140 kPa) was 1016.1 ± 1.2 kg/m3 and the mass density (21155 kPa) was 1016 ± 1.2 kg/m3. The mass density (21170 kPa) was 1015.9 ± 1.2 kg/m3, the mass density (21185 kPa) was 1016.1 ± 1.2 kg/m3 and the mass density (21204 kPa) was 1016.1 ± 1.2 kg/m3. It also gave a mass density (21219 kPa) of 1016 ± 1.2 kg/m3, a mass density (21237 kPa) of 1016 ± 1.2 kg/m3 and a mass density (21252 kPa) of 1016.1 ± 1.2 kg/m3. It also gave a mass density (21267 kPa) of 1016.1 ± 1.2 kg/m3, a mass density (21282 kPa) of 1016.1 ± 1.2 kg/m3 and a mass density (21301 kPa) of 1016.1 ± 1.2 kg/m3. For the same compound, the mass density (21316 kPa) was 1016.1 ± 1.2 kg/m3, the mass density (21332 kPa) was 1016.1 ± 1.2 kg/m3 and the mass density (21350 kPa) was 1016.1 ± 1.2 kg/m3. For the same compound, the mass density (21366 kPa) was 1016.2 ± 1.2 kg/m3, the mass density (21384 kPa) was 1016.2 ± 1.2 kg/m3 and the mass density (21399 kPa) was 1016.1 ± 1.2 kg/m3. The mass density (21415 kPa) was 1016.1 ± 1.2 kg/m3, the mass density (21430 kPa) was 1016.2 ± 1.2 kg/m3 and the mass density (21449 kPa) was 1016.3 ± 1.2 kg/m3. The mass density (21465 kPa) was 1016.1 ± 1.2 kg/m3, the mass density (21480 kPa) was 1016.2 ± 1.2 kg/m3 and the mass density (21499 kPa) was 1016.1 ± 1.2 kg/m3. The mass density (21514 kPa) was 1016.3 ± 1.2 kg/m3, the mass density (21530 kPa) was 1016.3 ± 1.2 kg/m3 and the mass density (21546 kPa) was 1016.3 ± 1.2 kg/m3. For the same compound, the mass density (21565 kPa) was 1016.2 ± 1.2 kg/m3, the mass density (21581 kPa) was 1016.1 ± 1.2 kg/m3 and the mass density (21597 kPa) was 1016.3 ± 1.2 kg/m3. The mass density (21616 kPa) was 1016.3 ± 1.2 kg/m3, the mass density (21632 kPa) was 1016.3 ± 1.2 kg/m3 and the mass density (21648 kPa) was 1016.3 ± 1.2 kg/m3. The mass density (21667 kPa) was 1016.2 ± 1.2 kg/m3, the mass density (21684 kPa) was 1016.3 ± 1.2 kg/m3 and the mass density (21699 kPa) was 1016.3 ± 1.2 kg/m3. For the same compound, the mass density (21715 kPa) was 1016.3 ± 1.2 kg/m3, the mass density (21734 kPa) was 1016.4 ± 1.2 kg/m3 and the mass density (21766 kPa) was 1016.3 ± 1.2 kg/m3. The mass density (21786 kPa) was 1016.3 ± 1.2 kg/m3, the mass density (21802 kPa) was 1016.5 ± 1.2 kg/m3 and the mass density (21821 kPa) was 1016.3 ± 1.2 kg/m3. For the same compound, the mass density (21837 kPa) was 1016.4 ± 1.2 kg/m3, the mass density (21853 kPa) was 1016.4 ± 1.2 kg/m3 and the mass density (21870 kPa) was 1016.3 ± 1.2 kg/m3. The mass density (21887 kPa) was 1016.3 ± 1.2 kg/m3, the mass density (21904 kPa) was 1016.4 ± 1.2 kg/m3 and the mass density (21923 kPa) was 1016.5 ± 1.2 kg/m3. For the same compound, the mass density (21940 kPa) was 1016.5 ± 1.2 kg/m3, the mass density (21959 kPa) was 1016.4 ± 1.2 kg/m3 and the mass density (21976 kPa) was 1016.5 ± 1.2 kg/m3. It also gave a mass density (21992 kPa) of 1016.5 ± 1.2 kg/m3, a mass density (22008 kPa) of 1016.5 ± 1.2 kg/m3 and a mass density (22028 kPa) of 1016.5 ± 1.2 kg/m3. It also gave a mass density (22044 kPa) of 1016.5 ± 1.2 kg/m3, a mass density (22061 kPa) of 1016.5 ± 1.2 kg/m3 and a mass density (22081 kPa) of 1016.5 ± 1.2 kg/m3. The mass density (22098 kPa) was 1016.4 ± 1.2 kg/m3, the mass density (22117 kPa) was 1016.6 ± 1.2 kg/m3 and the mass density (22134 kPa) was 1016.7 ± 1.2 kg/m3. The mass density (22150 kPa) was 1016.5 ± 1.2 kg/m3, the mass density (22170 kPa) was 1016.6 ± 1.2 kg/m3 and the mass density (22187 kPa) was 1016.6 ± 1.2 kg/m3. For the same compound, the mass density (22204 kPa) was 1016.7 ± 1.2 kg/m3, the mass density (22224 kPa) was 1016.5 ± 1.2 kg/m3 and the mass density (22241 kPa) was 1016.6 ± 1.2 kg/m3. The mass density (22261 kPa) was 1016.5 ± 1.2 kg/m3, the mass density (22278 kPa) was 1016.5 ± 1.2 kg/m3 and the mass density (22295 kPa) was 1016.5 ± 1.2 kg/m3. The mass density (22316 kPa) was 1016.6 ± 1.2 kg/m3, the mass density (22333 kPa) was 1016.6 ± 1.2 kg/m3 and the mass density (22350 kPa) was 1016.7 ± 1.2 kg/m3. For the same compound, the mass density (22367 kPa) was 1016.7 ± 1.2 kg/m3, the mass density (22386 kPa) was 1016.7 ± 1.2 kg/m3 and the mass density (22402 kPa) was 1016.7 ± 1.2 kg/m3. The mass density (22421 kPa) was 1016.6 ± 1.2 kg/m3, the mass density (22436 kPa) was 1016.7 ± 1.2 kg/m3 and the mass density (22452 kPa) was 1016.7 ± 1.2 kg/m3. For the same compound, the mass density (22468 kPa) was 1016.6 ± 1.2 kg/m3, the mass density (22487 kPa) was 1016.8 ± 1.2 kg/m3 and the mass density (22503 kPa) was 1016.7 ± 1.2 kg/m3. The mass density (22522 kPa) was 1016.7 ± 1.2 kg/m3, the mass density (22538 kPa) was 1016.8 ± 1.2 kg/m3 and the mass density (22555 kPa) was 1016.8 ± 1.2 kg/m3. For the same compound, the mass density (22574 kPa) was 1016.7 ± 1.2 kg/m3, the mass density (22590 kPa) was 1016.8 ± 1.2 kg/m3 and the mass density (22607 kPa) was 1016.7 ± 1.2 kg/m3. The mass density (22623 kPa) was 1016.8 ± 1.2 kg/m3, the mass density (22643 kPa) was 1016.7 ± 1.2 kg/m3 and the mass density (22660 kPa) was 1016.7 ± 1.2 kg/m3. For the same compound, the mass density (22676 kPa) was 1016.8 ± 1.2 kg/m3, the mass density (22695 kPa) was 1016.9 ± 1.2 kg/m3 and the mass density (22710 kPa) was 1016.9 ± 1.2 kg/m3. It also gave a mass density (22728 kPa) of 1016.8 ± 1.2 kg/m3, a mass density (22744 kPa) of 1016.8 ± 1.2 kg/m3 and a mass density (22760 kPa) of 1016.9 ± 1.2 kg/m3. The mass density (22779 kPa) was 1016.9 ± 1.2 kg/m3, the mass density (22795 kPa) was 1017 ± 1.2 kg/m3 and the mass density (22810 kPa) was 1016.8 ± 1.2 kg/m3. The mass density (22826 kPa) was 1017 ± 1.2 kg/m3, the mass density (22845 kPa) was 1017 ± 1.2 kg/m3 and the mass density (22861 kPa) was 1016.8 ± 1.2 kg/m3. The mass density (22880 kPa) was 1017 ± 1.2 kg/m3.
